Measured values as given in PubChem BioAssay (NCI).
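Five compound concentrations were applied to cells in 96-well plates for 48 hours; endpoints were derived by simple linear interpolation of the resulting dose-response curve. Here, GI50 denotes the concentration required for 50% inhibition of growth. TGI is the concentration that stops growth completely.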

Assays:
Test in all cases: DTP human tumour cell line panel, 48 h
[1] = system: UACC-62 melanoma
[2] = system: SK-OV-3 ovarian
[3] = system: KM12 colon
[4] = system: SNB-19 CNS
[5] = system: SNB-75 CNS
[6] = system: OVCAR-5 ovarian
[7] = system: EKVX NSCLC
[8] = system: SK-MEL-5 melanoma
[9] = system: NCI-H460 lung
[10] = system: COLO 205 colon

Compound	GI50 [1]	TGI [1]	GI50 [2]	TGI [2]	GI50 [3]	TGI [3]	GI50 [4]	TGI [4]	GI50 [5]	TGI [5]	GI50 [6]	TGI [6]	GI50 [7]	TGI [7]	GI50 [8]	TGI [8]	GI50 [9]	TGI [9]	GI50 [10]	TGI [10]
CC(CNc1nc(Nc2ccc(Cl)c(Cl)c2)nc(C(Cl)(Cl)Cl)n1)N(C)C (stereo not given)	1.71 µM	3.11 µM	1.6 µM	3.18 µM	1.7 µM	3.14 µM	1.71 µM	3.18 µM	1.53 µM	4.7 µM	1.61 µM	3.2 µM	1.99 µM	4.62 µM	1.63 µM	2.98 µM	1.66 µM	3.11 µM	1.83 µM	3.39 µM
C/C=C1/C(=O)O[C@]23C=C[C@@H]4C(C(=O)OC)=CO[C@H](O[C@@H]12)[C@@H]43		2.89 µM		9.75 µM		6.12 µM		10.3 µM		7.38 µM		7.69 µM		3.64 µM		4.2 µM		32.4 µM		3.29 µM
Cc1ccc(C(=O)N/N=C(\N=Nc2ccccc2)c2ccc(N(CCC#N)CCC#N)cc2C)cc1		> 100 µM		> 100 µM		> 100 µM		> 100 µM		> 100 µM		> 100 µM		> 100 µM		> 100 µM		> 100 µM		> 100 µM
O=C1NC(=O)C2(CCc3ccc(N(CCCl)CCCl)cc32)N1 (stereo not given)		15.8 µM		47 µM		> 84.1 µM		> 84.7 µM		26.3 µM		50.2 µM		16.4 µM		26.6 µM		23.8 µM		17.5 µM
CC(=O)Nc1nc(C)c(-c2cc3c(c(S(C)(=O)=O)c2)C(=O)N([C@@H](C)C2CC2)C3)s1	34.8 µM	> 100 µM	22.2 µM	56.4 µM	85 µM	> 100 µM	65.5 µM	> 100 µM	3.11 µM	35.6 µM	29.9 µM	> 100 µM	18.3 µM	79.9 µM	18.8 µM	39.7 µM	37.1 µM	> 100 µM	34.9 µM	> 100 µM
COc1ccc(/C=C/C(=O)/C=C(/C=C/c2ccc(OC)c(OC)c2OC)OB(F)F)c(OC)c1OC	1.47 µM	4.69 µM	3.77 µM	> 100 µM	2.09 µM	5.08 µM	2.35 µM	> 100 µM	4.84 µM	> 100 µM	3.3 µM	> 100 µM	2.96 µM	> 100 µM	1.77 µM	3.91 µM	1.66 µM	3.52 µM	1.94 µM	6.84 µM
COc1ccc(-c2c(C#N)cnc(N)c2-c2nc3cc(C)c(C)cc3[nH]2)cc1	7.22 µM	> 100 µM	4.84 µM	18.4 µM	3.47 µM	> 100 µM	7.06 µM	57.1 µM	2.36 µM	8.19 µM	52.4 µM	> 100 µM	15.8 µM	> 100 µM	8.78 µM	> 100 µM	18.1 µM	> 100 µM	7.78 µM	63.7 µM
CC1CC(c2ccc([N+](=O)[O-])cc2)=Nc2ccccc2S1=O (stereo not given)		38.8 µM		64.9 µM		26.7 µM		38.5 µM		53.2 µM		70 µM		60.9 µM		37.1 µM		34.3 µM		33.5 µM
CC(=O)O[C@@H]1CN(S(=O)(=O)c2ccc(C)cc2)C[C@@H]1C1CCCCC1		33.4 µM		> 100 µM		29.8 µM		> 100 µM		44.4 µM		> 100 µM		58.6 µM		45.8 µM		> 100 µM		46.5 µM
COc1ccc2oc3c(ccc[n+]3C)c(=O)c2c1		> 100 µM		> 100 µM		> 100 µM		> 100 µM		> 100 µM		> 100 µM		> 100 µM		> 100 µM		> 100 µM		> 100 µM
COc1cc2c(cc1O)N=C[C@@H]1CCC(O)N1C2=O (mixture of isomers)		1.5 µM		84 µM		17.9 µM		147 µM		3.26 µM		18.8 µM		5.99 µM		1.83 µM		11.4 µM		1.93 µM
CCc1ncc(C(C)(O)c2ccccc2)n1Cc1ccccc1 (stereo not given)		54.2 µM		> 100 µM		> 100 µM		> 100 µM		> 100 µM		> 100 µM		> 100 µM		40.6 µM		> 100 µM		> 100 µM
